A short description of series [1]: Toxicity test, oral administration, deaths over 48 hours. The conditions noted are these: rat, in vivo, rats, orally administered; for mortality at 48 h: deaths over 48 hours, read-out: Lethal Rate(%); for LD50 at 48 h: amount of test compound which causes a 50% lethal rate, read-out: LD₅₀. The protocol: Six pairs(each pair consisting of a male and a female) of the rats were used in the test. The number of the rats which died over a period of 48 hours was reported.

In series [2] the test system is Guinea pig trachea muscle. As to the kind of experiment: Relaxation activity on respiratory smooth muscle contracted with histamine. Format: cell-based. As to conditions: Cavia porcellus, concentration relaxing 50% of the contraction, read-out: Trachea Relaxation Activity, EC₅₀. The method, then: Further, the relaxation activity on respiratory smooth muscle was determined as follows: Guinea pig trachea muscle was made to be contracted with histamine; and then the test compound of the present invention was administered thereto; and the concentration of the test compound which was required in relaxing 50% level of the contraction was determined and designated as EC₅₀.

The subject of series [3] is spontaneously hypertensive rats. The series can be described thus: Blood pressure-lowering activity, tail-cuff method. Format: in vivo. As to conditions: maximum lowering effect on systolic blood pressure. The protocol:
The activity of the formula(I) compounds of the present invention was tested by employing the tail-cuff method described in references [see, e.g., I. M. Claxton, M. G. Palfreyman, R. H. Poyster and R. L. Whiting, European Journal of Pharmacology 37, 179(1976)] . After administration of the test compound of formula(I) to sets of spontaneously hypertensive rats, maximum blood pressure-lowering activity was determined by measuring the lowering effect on systolic blood pressure.

Read-outs that look alike come from different tables or passages of the source.

Consider `CC1(C2OCCCO2)C=C(N2CCCC2=O)c2cc([N+](=O)[O-])ccc2O1` (racemic) [Example 11, 2-(2'' -(1'' ,3'' -dioxane))-2-methyl-4-(2' -oxo-1' -pyrrolidinyl)-6-nitro-2H-1-benzopyran], for which the mortality at 48 h was determined as 0% in series [1] (Dose 10 mg/kg), 35% in series [1] (Dose 20 mg/kg) and 35% in series [1] (Dose 50 mg/kg). The LD50 at 48 h in series [1] is more than 50 mg/kg. Moreover, the EC50 in series [2] worked out at 50 µM. In addition, in series [3] (Dose 0.1 mg/kg), the “Blood Pressure-Lowering Activity” value stood at 48%.

Consider `COC(OC)C1(C)C=C(N2CCCC2=O)c2cc(C#N)ccc2O1` (racemic) [Example 1, 2-dimethoxymethyl-2-methyl-4-(2' -oxo-1' -pyrrolidinyl)-6-cyano-2H-1-benzopyran], for which the mortality at 48 h in series [1] (Dose 10 mg/kg) stood at 0%; in series [1] (Dose 20 mg/kg), 8%; in series [1] (Dose 50 mg/kg) it was 25%. In addition, in series [1], the LD50 at 48 h was more than 50 mg/kg. Moreover, the EC50 in series [2] came to 150 µM. Besides, the “Blood Pressure-Lowering Activity” value in series [3] (Dose 0.3 mg/kg) came to 24%; in series [3] (Dose 1.0 mg/kg) it was 43%.

As to `COC(OC)C1(C)C=C(N2CCCC2=O)c2cc(C#N)ccc2O1` (single isomer, unassigned) [16(-), 2-dimethoxymethyl-2-methyl-4-(2' -oxo-1' -pyrrolidinyl)-6-cyano-2H-1-benzopyran], the EC50 in series [2] is 140 µM. The “Blood Pressure-Lowering Activity” value in series [3] (Dose 0.3 mg/kg) was determined as 28%; in series [3] (Dose 1.0 mg/kg) it was 55%.

For `CC1(C2OCCO2)C=C(N2CCCC2=O)c2cc(OC(F)(F)F)ccc2O1` (racemic) [Example 9, 2-(2'' -(1'' ,3'' -dioxolane))-2-methyl-4-(2' -oxo-1' -pyrrolidinyl)-6-trifluoromethoxy-2H-1-benzopyran], in series [2], the EC50 turned out to be 17.1 µM. Also, the “Blood Pressure-Lowering Activity” value in series [3] (Dose 0.1 mg/kg) amounted to 20.6%.

For `CC1(C)Oc2ccc(C#N)cc2C(N2CCCC2=O)C1O` (stereo not drawn) [Cromakalim(-), Cromakalim, reference compound], the EC50 in series [2] was found to be 2.7 µM. The “Blood Pressure-Lowering Activity” value in series [3] (Dose 0.3 mg/kg) is reported as 39%.

Turning to `CC1(C2OCCO2)C=C(N2CCCC2=O)c2cc(C#N)ccc2O1` (racemic) [Example 7, 2-(2'' -(1'' ,3'' -dioxolane))-2-methyl-4-(2' -oxo-1' -pyrrolidinyl)-6-cyano-2H-1-benzopyran], the EC50 in series [2] stood at 50 µM. In addition, the “Blood Pressure-Lowering Activity” value in series [3] (Dose 1.0 mg/kg) is listed as 41%.

Regarding `COC(OC)C1(C)C=C(N2CCCC2=O)c2cc(S(=O)(=O)c3ccccc3)ccc2O1` (racemic) [Example 3, 2-dimethoxymethyl-2-methyl-4-(2' -oxo-1' -pyrrolidinyl)-6-phenylsulfonyl-2H-1-benzopyran], the EC50 in series [2] came to 10.9 µM. In addition, the “Blood Pressure-Lowering Activity” value in series [3] (Dose 0.1 mg/kg) is 6.9%.
